What was measured:
Format in all cases: biochemical
adenosine A1 receptor = adenosine A1 receptor (Homo sapiens (Human), UniProt P30542); assay: Adenosine receptor activity assay (Table 1), A1 cAMP
Description: (§1) Table 1. Compounds (e.g., Adenosine Receptor modulators) and activity assay results. The legend is as follows: A=<10 nM; B=10-50 nM; C=50-100 nM; D=100-500; and E=>500 nM. The ratio corresponds to the A2A activity to the A2B activity; or A2A/A2B.

adenosine A3 receptor = adenosine A3 receptor (Homo sapiens (Human), UniProt P0DMS8); assay: Adenosine receptor activity assay (Table 1), A3 cAMP
Description: as §1

adenosine A2A receptor = adenosine A2A receptor (Homo sapiens (Human), UniProt P29274); assay: Adenosine receptor activity assay (Table 1), A2A activity; conditions: read-out: Ave A2A cAMP IC50
adenosine A2B receptor = adenosine A2B receptor (Homo sapiens (Human), UniProt P29275); assay: Adenosine receptor activity assay (Table 1), A2B activity; conditions: for Ratio: A2A activity to the A2B activity, A2A/A2B; for IC50: read-out: Ave A2B cAMP IC50
Chain of adenosine A2B receptor (P29275 whole entry): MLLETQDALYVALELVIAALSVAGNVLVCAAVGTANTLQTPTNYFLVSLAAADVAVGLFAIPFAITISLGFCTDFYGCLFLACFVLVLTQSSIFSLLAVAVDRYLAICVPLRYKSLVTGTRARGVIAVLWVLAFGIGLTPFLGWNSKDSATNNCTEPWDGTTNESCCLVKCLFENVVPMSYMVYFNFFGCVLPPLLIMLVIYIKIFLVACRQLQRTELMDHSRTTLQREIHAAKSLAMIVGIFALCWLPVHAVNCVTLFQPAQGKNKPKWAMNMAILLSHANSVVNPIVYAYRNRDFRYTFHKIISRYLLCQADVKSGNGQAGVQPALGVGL

Chain of adenosine A2A receptor (P29274 whole entry): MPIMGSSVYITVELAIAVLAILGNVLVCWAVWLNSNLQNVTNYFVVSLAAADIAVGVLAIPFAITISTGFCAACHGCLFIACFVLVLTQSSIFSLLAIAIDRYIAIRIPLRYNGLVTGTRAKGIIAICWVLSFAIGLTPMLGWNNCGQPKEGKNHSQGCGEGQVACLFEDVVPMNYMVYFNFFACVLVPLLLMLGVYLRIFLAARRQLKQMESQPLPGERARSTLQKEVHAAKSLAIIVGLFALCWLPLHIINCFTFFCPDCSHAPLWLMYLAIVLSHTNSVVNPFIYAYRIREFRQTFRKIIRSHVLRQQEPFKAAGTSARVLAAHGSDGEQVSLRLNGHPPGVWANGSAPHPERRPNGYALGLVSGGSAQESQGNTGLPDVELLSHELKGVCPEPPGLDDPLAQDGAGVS
Chain of adenosine A3 receptor (P0DMS8 whole entry): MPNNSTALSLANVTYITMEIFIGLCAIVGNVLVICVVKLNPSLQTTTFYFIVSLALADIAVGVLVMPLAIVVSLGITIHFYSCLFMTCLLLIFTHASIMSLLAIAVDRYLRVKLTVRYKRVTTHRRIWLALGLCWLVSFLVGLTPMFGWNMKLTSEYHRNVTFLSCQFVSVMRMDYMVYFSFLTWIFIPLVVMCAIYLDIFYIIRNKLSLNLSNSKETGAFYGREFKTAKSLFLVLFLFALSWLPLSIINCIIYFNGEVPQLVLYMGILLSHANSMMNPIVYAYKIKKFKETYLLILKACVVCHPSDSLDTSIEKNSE
Chain of adenosine A1 receptor (P30542 whole entry): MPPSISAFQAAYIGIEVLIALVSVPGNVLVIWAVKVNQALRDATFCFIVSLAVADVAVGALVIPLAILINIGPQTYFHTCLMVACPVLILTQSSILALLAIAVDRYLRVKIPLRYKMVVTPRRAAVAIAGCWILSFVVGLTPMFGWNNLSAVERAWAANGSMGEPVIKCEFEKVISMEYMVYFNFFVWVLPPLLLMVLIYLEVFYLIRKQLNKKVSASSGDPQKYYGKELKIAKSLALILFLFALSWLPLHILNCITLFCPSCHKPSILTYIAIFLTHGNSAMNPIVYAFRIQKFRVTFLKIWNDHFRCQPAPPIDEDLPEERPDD

SMILES | IC50 (adenosine A1 receptor) [nM] | IC50 (adenosine A3 receptor) [nM] | IC50 (adenosine A2A receptor) [nM] | Ratio (adenosine A2B receptor) | IC50 (adenosine A2B receptor) [nM]
C[C@H](Nc1nc(C(=O)N2CC(CNC(=O)OCC(C)(C)C)C2)c2sccc2n1)c1cncc(F)c1 [Example Z581, Neopentyl (S)-((1-(2-((1-(5-fluoropyridin-3-yl)ethyl)amino)thieno[3,2-d]pyrimidine-4-carbonyl)azetidin-3-yl)methyl)carbamate] | > 500 | > 500 | 10 to 50 | 1.68 | 10 to 50
Cc1cc2nc(N[C@@H](C)c3cncc(F)c3)nc(C(=O)N3CC(CNC(=O)CC(C)(C)C)C3)c2s1 [Example Z586, (S)—N-((1-(2-((1-(5-Fluoropyridin-3-yl)ethyl)amino)-6-methylthieno[3,2-d]pyrimidine-4-carbonyl)azetidin-3-yl)methyl)-3,3-dimethylbutanamide] | > 500 | > 500 | 50 to 100 | 2.27 | 10 to 50
Cc1csc2c(C(=O)NCc3cccnc3)nc(N[C@@H](C)c3ccccn3)nc12 [Example Z458, (S)-7-Methyl-2-((1-(pyridin-2-yl)ethyl)amino)-N-(pyridin-3-ylmethyl)thieno[3,2-d]pyrimidine-4-carboxamide] | > 500 | > 500 | 10 to 50 | 0.72 | 10 to 50
Cc1cc2nc(N[C@@H](C)c3cncc(F)c3)nc(C(=O)N3CC(C(N)=O)C3)c2s1 [Example Z504, (S)-1-(2-((1-(5-Fluoropyridin-3-yl)ethyl)amino)-6-methylthieno[3,2-d]pyrimidine-4-carbonyl)azetidine-3-carboxamide] | > 500 | > 500 | > 500 | 287.41 | < 10
Cc1cc2nc(N[C@@H](C)c3ccccn3)nc(C(=O)NCc3cccnc3)c2s1 [Example Z462, (S)-6-Methyl-2-((1-(pyridin-2-yl)ethyl)amino)-N-(pyridin-3-ylmethyl)thieno[3,2-d]pyrimidine-4-carboxamide] | > 500 | 50 to 100 | 50 to 100 | 2.70 | 10 to 50
Cc1cc2nc(N[C@@H](C)c3cncc(F)c3)nc(C(=O)N3CC(NC(=O)c4ccoc4)C3)c2s1 [Example Z546, (S)—N-(1-(2-((1-(5-Fluoropyridin-3-yl)ethyl)amino)-6-methylthieno[3,2-d]pyrimidine-4-carbonyl)azetidin-3-yl)furan-3-carboxamide] | > 500 | > 500 | 10 to 50 | 3.52 | < 10
CC(=O)Nc1ccc(CCNC(=O)c2nc(N[C@@H](C)c3cncc(F)c3)nc3cc(C)sc23)cc1 [Example Z488, (S)—N-(4-Acetamidophenethyl)-2-((1-(5-fluoropyridin-3-yl)ethyl)amino)-6-methylthieno[3,2-d]pyrimidine-4-carboxamide] | > 500 | > 500 | > 500 | 147.08 | < 10
Cc1cc2nc(N[C@@H](C)c3ccccn3)nc(C(=O)NCc3nccs3)c2s1 [Example Z492, (S)-6-Methyl-2-((1-(pyridin-2-yl)ethyl)amino)-N-(thiazol-2-ylmethyl)thieno[3,2-d]pyrimidine-4-carboxamide] | > 500 | 10 to 50 | 100 to 500 | 8.25 | 10 to 50
COC[C@@H](Nc1nc(C(=O)NCCc2ccc(O)cc2)c2sccc2n1)c1cccnc1 [Example Z403, (S)—N-(4-Hydroxyphenethyl)-2-((2-methoxy-1-(pyridin-3-yl)ethyl)amino)thieno[3,2-d]pyrimidine-4-carboxamide] | > 500 | > 500 | > 500 | 42.24 | 10 to 50
Cc1cc2nc(N[C@@H](C)c3cncc(F)c3)nc(C(=O)N3CC(NC(=O)CNC(=O)c4ccccc4)C3)c2s1 [Example Z512, (S)—N-(2-((1-(2-((1-(5-Fluoropyridin-3-yl)ethyl)amino)-6-methylthieno[3,2-d]pyrimidine-4-carbonyl)azetidin-3-yl)amino)-2-oxoethyl)benzamide] | > 500 | > 500 | > 500 | 33.02 | 10 to 50
CC(=O)NC1CN(C(=O)c2nc(N[C@@H](C)c3cncc(F)c3)nc3ccsc23)C1 [Example Z530, (S)—N-(1-(2-((1-(5-Fluoropyridin-3-yl)ethyl)amino)thieno[3,2-d]pyrimidine-4-carbonyl)azetidin-3-yl)acetamide] | > 500 | > 500 | 100 to 500 | 6.99 | 10 to 50
CC(C)C(=O)NCC1CN(C(=O)c2nc(N[C@@H](C)c3cncc(F)c3)nc3ccsc23)C1 [Example Z578, (S)—N-((1-(2-((1-(5-Fluoropyridin-3-yl)ethyl)amino)thieno[3,2-d]pyrimidine-4-carbonyl)azetidin-3-yl)methyl)isobutyramide] | > 500 | > 500 | 50 to 100 | 4.95 | 10 to 50
Cc1cc2nc(N[C@@H](C)c3cncc(F)c3)nc(C(=O)NCC[C@@H]3CCNC3)c2s1 [Example Z489, 2-(((S)-1-(5-Fluoropyridin-3-yl)ethyl)amino)-6-methyl-N-(2-((S)-pyrrolidin-3-yl)ethyl)thieno[3,2-d]pyrimidine-4-carboxamide] | > 500 | > 500 | > 500 | 365.84 | 10 to 50
C[C@H](Nc1nc(C(=O)N2CC(CNC(=O)N(C)C)C2)c2sccc2n1)c1cncc(F)c1 [Example Z577, (S)-3-((1-(2-((1-(5-Fluoropyridin-3-yl)ethyl)amino)thieno[3,2-d]pyrimidine-4-carbonyl)azetidin-3-yl)methyl)-1,1-dimethylurea] | > 500 | > 500 | 50 to 100 | 6.37 | 10 to 50
Cc1cc2nc(N[C@@H](C)c3cncc(F)c3)nc(C(=O)NCCC3CN(C)C3)c2s1 [Example Z535, (S)-2-((1-(5-Fluoropyridin-3-yl)ethyl)amino)-6-methyl-N-(2-(1-methylazetidin-3-yl)ethyl)thieno[3,2-d]pyrimidine-4-carboxamide] | > 500 | > 500 | > 500 | 244.67 | 10 to 50
CCNC(=O)c1ccc(CCNC(=O)c2nc(N[C@@H](C)c3cncc(F)c3)nc3cc(C)sc23)cc1 [Example Z506, (S)—N-(4-(Ethylcarbamoyl)phenethyl)-2-((1-(5-fluoropyridin-3-yl)ethyl)amino)-6-methylthieno[3,2-d]pyrimidine-4-carboxamide] | > 500 | > 500 | > 500 | 22.42 | 10 to 50
C[C@H](Nc1nc(C(=O)NCCc2ccc(O)cc2)c2sccc2n1)c1ccccn1 [Example Z410, (S)—N-(4-Hydroxyphenethyl)-2-((1-(pyridin-2-yl)ethyl)amino)thieno[3,2-d]pyrimidine-4-carboxamide] | > 500 | > 500 | 100 to 500 | 69.41 | < 10
CC(C)C(=O)NC1CN(C(=O)c2nc(N[C@@H](C)c3cncc(F)c3)nc3ccsc23)C1 [Example Z558, (S)—N-(1-(2-((1-(5-Fluoropyridin-3-yl)ethyl)amino)thieno[3,2-d]pyrimidine-4-carbonyl)azetidin-3-yl)isobutyramide] | > 500 | > 500 | 10 to 50 | 3.43 | < 10
COC[C@H]1CCN(C(=O)c2nc(N[C@@H](C)c3ccccn3)nc3cc(C)sc23)C1 [Example Z468, ((S)-3-(Methoxymethyl)pyrrolidin-1-yl)(6-methyl-2-(((S)-1-(pyridin-2-yl)ethyl)amino)thieno[3,2-d]pyrimidin-4-yl)methanone] | > 500 | > 500 | > 500 | 24.67 | 10 to 50
CCOC(=O)N(C)C1CN(C(=O)c2nc(N[C@@H](C)c3cncc(F)c3)nc3cc(C)sc23)C1 [Example Z507, Ethyl (S)-(1-(2-((1-(5-fluoropyridin-3-yl)ethyl)amino)-6-methylthieno[3,2-d]pyrimidine-4-carbonyl)azetidin-3-yl)(methyl)carbamate] | > 500 | > 500 | 50 to 100 | 5.66 | 10 to 50
COC1(C)CN(C(=O)c2nc(N[C@@H](C)c3ccccn3)nc3cc(C)sc23)C1 [Example Z483, (S)-(3-Methoxy-3-methylazetidin-1-yl)(6-methyl-2-((1-(pyridin-2-yl)ethyl)amino)thieno[3,2-d]pyrimidin-4-yl)methanone] | > 500 | > 500 | 100 to 500 | 30.60 | 10 to 50
Cc1cc2nc(N[C@@H](C)c3cncc(F)c3)nc(C(=O)N3CC(NC(=O)[C@@H]4CCOC4)C3)c2s1 [Example Z598, (R)—N-(1-(2-(((S)-1-(5-Fluoropyridin-3-yl)ethyl)amino)-6-methylthieno[3,2-d]pyrimidine-4-carbonyl)azetidin-3-yl)tetrahydrofuran-3-carboxamide] | > 500 | 100 to 500 | 10 to 50 | 0.68 | 10 to 50
Cc1cc2nc(N[C@@H](C)c3cncc(F)c3)nc(C(=O)N3CC[C@@H]3C)c2s1 [Example Z596] | < 10 | < 10 | 10 to 50 | 10.34 | < 10

Reference: patent US11254686B1 (Corvus Pharmaceuticals, Inc., priority 2017, dated 2022)
